# Source: patent US9958434B2, “Fluorescent probe sensing tyrosine kinase and use thereof” (POSTECH ACADEMY-INDUSTRY FOUNDATION, priority 2013, dated 2018)
# Key:
# [1] = biological target: T1, Src (Homo sapiens, UniProt P12931); experiment: Protein binding selectivity by change in fluorescence (fluorescence turn-on on binding)
# T1 construct: purchased Carna Biosciences
# Procedure: More particularly, to determine whether compound 1 selectively binds to a kinase enzyme, various proteins (including a kinase enzyme) were used to check a change in fluorescence. In this experiment, a buffer (100 mM HEPES buffer, pH 7.4) was used as the solvent, and a kinase commercially available from Carna Biosciences was used as the kinase enzyme. Here, each kinase enzyme was stored at −80° C. together with a solvent (50 mM Tris-HCl, 150 mM NaCl, 0.1% CHAPS, 1 mM DTT, and 10% Glycerol, pH 7.5) kindly provided by the manufacturer. […] A 96-well fluorescence assay plate (commercially available from SPL Life Science) was used as a plate used upon measurement of fluorescence, and a VCITOR 3 multilabel counter (commercially available from Perkin Elmer-Wellesley) was used as a measuring machine. A 355 nm-thick filter was used to produce excitation wavelengths of the measuring machine, and a 535 nm-thick filter was used to produce emission wavelengths of the measuring machine. Stirring was performed at 37° C. for 24 hours at a rotary speed of 170 rpm using an NB-205Q model (commercially available from N-BIOTEK). Compound 1 was dissolved in a DMSO solution (1 mM, 10 mM, 50 mM, 100 mM, and 200 mM) to be used, and DMSO in every tube was adjusted to be substantially the same content (less than 1%) under the finally used solvent conditions. Mg^2+ and ATP were used at a content of 1 mM.
# In the graph shown in FIG. 2, the horizontal axis represents kinds of proteins, and the vertical axis represents fluorescence intensities of the proteins. Each experimental value was basically an average value of three experiments conducted through the same course for preparing for experiments, a concentration of compound 1 used was 100 μM, and an amount of each protein was 0.2 μg/mL. The kinds of proteins indicated on the horizontal axis are as follows. […]
# More particularly, the solvent and experiment conditions used were substantially the same as in Example 3. In the graph shown in FIG. 7, A represents a fluorescence intensity when compound 1 (100 μM) is used alone, B represents a fluorescence intensity when Mg (1 mM) is added to compound 1, C represents a fluorescence intensity when ATP (1 mM) is added to compound 1, and D represents a fluorescence intensity when compound 1 is treated with Mg (1 mM) and ATP (1 mM) at the same time.
# More particularly, a concentration of the kinase enzyme was set to 0.2 μg/mL, fluorescence intensity according to the concentration of compound 1 was measured in the presence of Mg (1 mM) and ATP (1 mM), and the solvent conditions and other conditions were substantially the same as in Example 3.
# [2] = test system: six kinase enzymes: ABL, BRAF, PDGFRa, RSK2, Src, TYK2; experiment: Effect of kinase inhibitor on binding of compound 1 to kinase enzymes (fluorescence intensity)
# Procedure: In this experiment, a buffer (100 mM HEPES buffer, pH 7.4) was used as the solvent, and a kinase commercially available from Carna Biosciences was used as the kinase enzyme. Here, each kinase enzyme was stored at −80° C. together with a solvent (50 mM Tris-HCl, 150 mM NaCl, 0.1% CHAPS, 1 mM DTT, and 10% Glycerol, pH 7.5) kindly provided by the manufacturer. […] A 96-well fluorescence assay plate (commercially available from SPL Life Science) was used as a plate used upon measurement of fluorescence, and a VCITOR 3 multilabel counter (commercially available from Perkin Elmer-Wellesley) was used as a measuring machine. A 355 nm-thick filter was used to produce excitation wavelengths of the measuring machine, and a 535 nm-thick filter was used to produce emission wavelengths of the measuring machine. […]
# More particularly, an effect of the inhibitor on a total of the six kinase enzymes was determined, and the six kinase enzymes are as follows: (A) ABL, (B) BRAF, (C) PDGFRa, (D) RSK2, (E) Src, and (F) TYK2. […]
# In this case, compound 1 (100 μM), ATP (1 mM), Mg (1 mM), and a kinase enzyme (0.2 μg/ml) were stirred for 24 hours (at 37° C.), and an inhibitor (100 μM) was then treated. […] Here, a left bar of each of A to F represents a fluorescence intensity before treatment of the inhibitor, and a right bar of each of A to F represents a fluorescence intensity after treatment of the inhibitor.
# T1 sequence (P12931 whole entry): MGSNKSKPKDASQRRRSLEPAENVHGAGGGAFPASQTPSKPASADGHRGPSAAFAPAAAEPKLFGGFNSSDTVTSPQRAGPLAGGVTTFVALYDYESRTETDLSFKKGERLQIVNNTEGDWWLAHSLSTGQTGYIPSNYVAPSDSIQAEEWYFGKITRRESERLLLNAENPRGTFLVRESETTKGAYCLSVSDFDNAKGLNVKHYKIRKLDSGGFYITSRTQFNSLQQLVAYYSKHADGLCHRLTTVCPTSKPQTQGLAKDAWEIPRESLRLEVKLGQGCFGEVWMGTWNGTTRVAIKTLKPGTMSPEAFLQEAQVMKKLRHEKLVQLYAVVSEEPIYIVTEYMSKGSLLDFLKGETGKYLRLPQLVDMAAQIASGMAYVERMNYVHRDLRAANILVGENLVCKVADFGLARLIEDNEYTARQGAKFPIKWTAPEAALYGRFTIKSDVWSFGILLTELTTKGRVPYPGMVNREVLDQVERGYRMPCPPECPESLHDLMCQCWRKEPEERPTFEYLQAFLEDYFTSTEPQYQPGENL
smiles,measurement,setting,value
"CN(C)c1ccc2cc(C=O)c(O)cc2c1 [compound 1, 6-(dimethylamino)-3-hydroxyl-2-naphthaldehyde]",fluorescence intensity,"[1]; compound 1 100 μM, protein 0.2 μg/mL, with Mg and ATP (1 mM), 37° C. 24 hours",increase in fluorescence
same,"fluorescence intensity, effect of cofactors","[1]; compound 1 100 μM, case D: Mg (1 mM) and ATP (1 mM) together",highest increase in fluorescence intensity
same,fluorescence signal intensity according to concentration of kinase enzyme,"[1]; compound 1 100 μM, enzyme 0.2 μg and 1 μg",stronger fluorescence signal intensity at higher concentrations
same,increase in fluorescence intensity,"[1]; compound 1 at approximately 50 μM, kinase 0.2 μg/mL, Mg 1 mM, ATP 1 mM",approximately 50%
same,fluorescence intensity after later treatment of inhibitor,"[2]; 24 hours 37° C. with kinase, Mg, ATP, then inhibitor 100 μM for another 24 hours",decreased
same,fluorescence intensity with inhibitor included,"[2]; compound 1 100 μM, kinase 0.2 μg/ml, Mg 1 mM, ATP 1 mM, Gleevec 100 μM together",did not selectively bind to the kinase enzymes to cause a sufficient increase in fluorescence intensity
